From publication PMC10414762, “Gene amplifications cause high-level resistance against albicidin in gram-negative bacteria” (PLOS Biology, 2023)

Biological target: T1, STM3175 (YgiV) (Salmonella enterica, UniProt Q8ZM00)
T1 construct: full-length STM3175 (288 aa)
Assay: tryptophan fluorescence quenching titration
Assay type: binding
Source text: tryptophan fluorescence quenching titration on STM3175 (YgiV) | Fluorescence quenching of STM3175 plotted as a function of increasing azahistidine albicidin concentration.

T1 sequence (Q8ZM00 whole entry): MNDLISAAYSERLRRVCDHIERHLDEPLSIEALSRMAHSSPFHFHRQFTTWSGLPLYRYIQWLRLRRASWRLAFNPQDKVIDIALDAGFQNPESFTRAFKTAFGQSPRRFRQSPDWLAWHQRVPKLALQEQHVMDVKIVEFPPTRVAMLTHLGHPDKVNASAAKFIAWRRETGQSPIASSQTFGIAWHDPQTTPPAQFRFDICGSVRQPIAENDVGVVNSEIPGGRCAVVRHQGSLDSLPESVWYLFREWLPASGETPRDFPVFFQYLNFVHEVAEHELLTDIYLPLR

COc1c(NC(=O)c2ccc(NC(=O)c3ccc(NC(=O)[C@H](Cc4c[nH]nn4)NC(=O)c4ccc(NC(=O)/C(C)=C/c5ccc(O)cc5)cc4)cc3)c(OC)c2O)ccc(C(=O)O)c1O [azahistidine albicidin]
Kd: 0.17 ± 0.01 µM
